# Key:
# A498 RCC xenograft = A498 RCC xenograft tumor growth; type: in vivo, mouse
# Procedure: (§1) Xenograft RCC models were generated as follows: Female NOD.SCID mice (6-8 weeks of age) were injected with A498 RCC cells (5×10^6 cells/mouse), female Balb/c Nude mice (6-8 weeks old) were implanted with 786-O RCC cells (5×10^6 cells/mouse) or Caki-1 RCC cells (6×10^6 cells/mouse), female Athymic Nude-Foxn1nu mice (7-8 weeks of age) were implanted with MFE280 endometrial cells (10×10^6 cells/mouse). Cells were implanted into the flank of animals.
# (§2) Once tumor tumors reached volume of typically 150-250 mm^3, animals were randomized by tumor volume into the treatment groups of 8 or 10 animals per group. In the single animal trial with RCC PDX models, only one animal per group was enrolled.
# (§3) Body weight and tumor volume were measured twice weekly. Tumor volume was calculated using the formula [tumor volume (mm^3)=π/6×length×width^2] and plotted as means+SEM. The percentage of tumor growth inhibition was calculated at the end of the study using the formula: […], if ΔT>0, ΔT, mean tumor volume of the drug-treated group on the observation day of the study—mean tumor volume of the drug-treated group on initial day of dosing; ΔC, mean tumor volume of the control group on the observation day of the study—mean tumor volume of the control group on initial day of dosing. Regression was calculated using the formula=100×ΔT/Tinitial, if ΔT<0. Animals with >50% regressions were partial responders. Animals with tumor volume of 0 (no measurable tumor) were considered as complete responders, and animals with <50% tumor regression and 30% growth over the baseline were considered as stable disease. Animals with tumors>30% increase over the baseline were considered progressive disease. The % change in body weight was calculated by the formula (body weight on observation day−body weight on initial day)/body weight on initial day×100%.
# SMTCA75 = assay: RCC PDX single animal trial, SMTCA75; type: in vivo, mouse; conditions: HC-5404 30 mg/kg PO BID, n=1
# Source text: (§4) This example investigated the effect of HC-5404 in combination with VEGFR-TKIs in inhibiting tumor growth using 12 RCC PDX tumor models, following procedures analogous to those described above.
# (§5) Single animal per group (n=1) trial of animals harboring diverse RCC PDX models were used in this study.
# ATF4 levels in HEK293 = assay: HEK293 cell-based ATF4 western blot; conditions: Homo sapiens; HEK293, tunicamycin 1 μM
# Procedure: Cell based assays HEK293 cells were plated at 1×10^6 cells per well and treated with HC-5404 30 minutes prior to addition of tunicamycin (1 μM) to induce ER stress. Cells were harvested 4 hours following tunicamycin addition and lysed for western blotting in RIPA buffer supplemented with protease and phosphatase inhibitors. Total protein concentrations were determined by BCA and […] of protein were loaded on to SDS-PAGE gels, transferred to nitrocellulose and probed with a primary antibody against phosphorylated T-982 of human PERK or total ATF4 followed by incubation with an infrared labelled secondary antibody. Blots were imaged on a LiCor imager and normalized to total protein in the wells using Revert™ stain. Band intensities were quantified and normalized to DMSO treated samples. Normalized band intensities were plotted as percent inhibition against 10-point; 3-fold dilution series of HC-5404. IC50 values were calculated using 4-parameter logistical fitting in XLFit.
# The cell-based activity of HC-5404 was evaluated using HEK293 treated with tunicamycin (Tm; 1 μM) to induce ER stress.
# RXF-2540 = assay: RCC PDX single animal trial, RXF-2540; type: in vivo, mouse; conditions: HC-5404 30 mg/kg PO BID, n=1
# Source text: as §4, §5
# RXF-2667 = assay: RCC PDX single animal trial, RXF-2667; type: in vivo, mouse; conditions: HC-5404 30 mg/kg PO BID, n=1
# Source text: as §4, §5
# [1] = test system: tumor vasculature of 786-O xenografts; assay: IHC of tumor vasculature in 786-O xenografts; type: in vivo, mouse
# Procedure: Formalin-fixed paraffin-embedded samples were sectioned at 5 μm thickness and mounted on Superfrost Plus microscope slides (Fisher Scientific). All immunohistochemical (IHC) staining was performed on Bond Rx auto-stainer (Leica Biosystems) using the conventional TSA-amplified detection system. Primary antibodies used were as follows: α-CD31 (Abcam #ab182981), α-smooth muscle actin (SMA; Abcam #ab124964), α-Meca32 (Novus Biologicals #NB100-77668). TSA-conjugated Alexa488 and Alexa647 fluorophores from Invitrogen (#B40953 and #B40958) were used at 1:500 dilution. Slides were counterstained with DAPI and cover slipped using Mowiol antifade mounting media (Sigma #D2522).
# Slides were imaged with Aperio Versa 200 (Leica Biosystems) whole-slide scanner using 10×/0.32NA objective, and the data were analyzed using custom-written macros in ImageJ/FIJI (NIH). Briefly, 150 μm of outer edges of the tumor sections were eliminated from the analysis. Gaussian-blurred DAPI channel was used to measure the area of the tissue. Scans of […] were processed with median filter to remove noise, then positive areas were measured with appropriate threshold levels. % positive area for each marker was calculated. CD31-SMA double positive areas were measured via image calculation of the binary images. One-way ANOVA and pair-wise comparisons were performed on the data using Prism GraphPad.
# PERK is an adaptive stress response that links hypoxia and nutrient deprivation with proangiogenic signaling. The effect of HC-5404 on tumor vasculature when administered in combination with antiangiogenic VEGFR-TKIs was investigated.
# As immature blood vessels mature, they develop a mural layer of cells that express smooth muscle actin (SMA), which encircles and stabilizes the maturing vessel. Co-staining for both CD31 and SMA was conducted to determine whether treatments were affecting mature or immature tumor blood vessels.
# This example investigated the inhibition the effect of cabozantinib on the formation of new tumor vasculature and on pericytes following procedures analogous to those described above.
# [2] = mouse body weight / tolerability; type: in vivo; conditions: 786-O, HC-5404 3, 10, 30 mg/kg BID and/or cabozantinib 30 mg/kg QD (FIG. 53)
# Procedure: as §3
# 786-O RCC xenograft = 786-O RCC xenograft tumor growth; type: in vivo, mouse
# Procedure: as §1, §2, §3
# [3] = 10 and 30 mg/kg PO BID tested, 28 days (FIG. 36)
smiles,measurement,setting,value
"Cc1cc(NC(=O)[C@H](O)c2cc(F)cc(F)c2)ccc1-c1cnc(N)c(C(=O)NC(C)C)c1 [HC-5404, (R)-2-amino-5-(4-(2-(3,5-difluorophenyl)-2-hydroxyacetamido)-2-methylphenyl)-N-isopropylnicotinamide]",TGI,A498 RCC xenograft; [3],~41%
same,TGI,A498 RCC xenograft; single agent: HC-5404 30 mg/kg PO BID or sunitinib 20 mg/kg PO QD (FIG. 31),~ 40%
same,antitumor efficacy as monotherapy,SMTCA75,exhibited antitumor efficacy
same,IC50,ATF4 levels in HEK293,115 nM
same,antitumor efficacy as monotherapy,RXF-2540,exhibited antitumor efficacy
same,antitumor efficacy as monotherapy,RXF-2667,exhibited antitumor efficacy
same,expression of any vascular markers,[1]; HC-5404 single agent (FIG. 39),did not affect the expression of any vascular markers
same,proportion of Meca32 expressing vascular endothelial cells,"[1]; axitinib study (FIG. 38, 39)",did not affect this vascular endothelium marker
same,mouse body weight,[2],did not affect mouse body weight
same,tumor growth inhibition,"786-O RCC xenograft; 30 mg/kg PO BID, 28 days (FIG. 22)",48%
same,difference between BID and QD dosing,"786-O RCC xenograft; 3, 10, 30 mg/kg BID vs 6, 20, 60 mg/kg QD, PO",not statistically significant
same,TGI,786-O RCC xenograft; [3],approximately 52%
same,TGI %,"786-O RCC xenograft; HC-5404 30 mg/kg PO BID, cabozantinib combination study (FIG. 52)",~ 61%
same,dose dependence of antitumor efficacy,"786-O RCC xenograft; HC-5404 3, 10 and 30 mg/kg PO BID",trend for dose-dependent antitumor efficacy
same,effect on tumor volume,"786-O RCC xenograft; single agent, efficacy arms (FIG. 28)",modest effects on tumor volume
